Legend:
Japanese bulrush [1] = assay: Test Example 1: herbicidal activity, application before weed generation under submerged conditions (Table 16, symbol B); assay type: in vivo, Japanese bulrush (Schoenoplectus juncoides)
In short: (§1)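 Alluvial soil was flooded to 4 cm depth, weed seeds were sown mixed and 2.5-leaf rice seedlings were transplanted. On sowing day, the compound's emulsion, diluted in water to a set dose, was applied to the water surface. Plants grew at 25–30 °C and were scored 0–5 after three weeks.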

oval-leafed pondweed = assay: Test Example 1: herbicidal activity, application before weed generation under submerged conditions (Table 16, symbol C); assay type: in vivo, oval-leafed pondweed (Monochoria vaginalis)
In short: as §1

Japanese bulrush [2] = assay: Test Example 2: herbicidal activity, application during weed generation under submerged conditions (Table 17, symbol B); assay type: in vivo, Japanese bulrush (Schoenoplectus juncoides); conditions: application during weed generation under submerged conditions
In short: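 Steps: fill Wagner pots with alluvial soil; add water to give 4 cm depth; sow the species mixed; grow under glass at 25–30° C.; at 1–2 leaves apply water-diluted emulsion formulation to the water surface at a fixed herbicide amount; score after 3 weeks.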

rice flat sedge = assay: Test Example 3: herbicidal effect by foliage application, Wagner pot (Table 18, symbol E); assay type: in vivo, rice flat sedge (Cyperus iria)
In short: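 Plants were sown in alluvial soil held under 0.1–0.5 cm standing water and grown 14 days in a greenhouse at 25–30 °C. An emulsifiable formulation, water-diluted to the set dose, was then sprayed onto the foliage, and effects were scored three weeks later using previously defined criteria.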

southern crabgrass [3] = assay: Test Example 4: herbicidal effect by soil treatment (Table 19, symbol F); assay type: in vivo, southern crabgrass (Digitaria ciliaris)
In short: (§2)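 Emulsion of test compound, water-diluted to predetermined amount, sprayed on soil after sowing (seed depth ~1.5 cm, sterilized diluvial soil). Greenhouse, 25–30° C. Effect graded at three weeks post-spray.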

barnyard grass = assay: Test Example 4: herbicidal effect by soil treatment (Table 19, symbol H); assay type: in vivo, barnyard grass (Echinochloa crus-galli)
In short: as §2

wild oat = assay: Test Example 4: herbicidal effect by soil treatment (Table 19, symbol I); assay type: in vivo, wild oat (Avena fatua)
In short: as §2

blackgrass [4] = assay: Test Example 4: herbicidal effect by soil treatment (Table 19, symbol J); assay type: in vivo, blackgrass (Alopecurus myosuroides)
In short: as §2

Italian ryegrass [5] = assay: Test Example 4: herbicidal effect by soil treatment (Table 19, symbol K); assay type: in vivo, Italian ryegrass (Lolium multiflorum)
In short: as §2

lambsquarters = assay: Test Example 4: herbicidal effect by soil treatment (Table 19, symbol O); assay type: in vivo, lambsquarters (Chenopodium album)
In short: as §2

chickweed [6] = assay: Test Example 4: herbicidal effect by soil treatment (Table 19, symbol P); assay type: in vivo, common chickweed (Stellaria media)
In short: as §2

persian speedwell [7] = assay: Test Example 4: herbicidal effect by soil treatment (Table 19, symbol R); assay type: in vivo, Persian speedwell (Veronica persica)
In short: as §2

southern crabgrass [8] = assay: Test Example 5: herbicidal effect by foliage application, plastic box (Table 20, symbol F); assay type: in vivo, southern crabgrass (Digitaria ciliaris); conditions: foliage application, evaluated 3 weeks after application
In short: (§3)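 Post-emergence foliar test in sterilized diluvial soil. Compound applied as water-diluted emulsion at a predetermined rate to 14-day-old plants; evaluation at three weeks.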

blackgrass [9] = assay: Test Example 5: herbicidal effect by foliage application, plastic box (Table 20, symbol J); assay type: in vivo, blackgrass (Alopecurus myosuroides); conditions: foliage application, evaluated 3 weeks after application
In short: as §3

Italian ryegrass [10] = assay: Test Example 5: herbicidal effect by foliage application, plastic box (Table 20, symbol K); assay type: in vivo, Italian ryegrass (Lolium multiflorum); conditions: foliage application, evaluated 3 weeks after application
In short: as §3

chickweed [11] = assay: Test Example 5: herbicidal effect by foliage application, plastic box (Table 20, symbol P); assay type: in vivo, common chickweed (Stellaria media); conditions: foliage application, evaluated 3 weeks after application
In short: as §3

persian speedwell [12] = assay: Test Example 5: herbicidal effect by foliage application, plastic box (Table 20, symbol R); assay type: in vivo, Persian speedwell (Veronica persica); conditions: foliage application, evaluated 3 weeks after application
In short: as §3

[13] = amount of applied herbicide 320 g/ha
[14] = amount of applied herbicide 402 g/ha

## CCCC(=O)Oc1c(C)nn(C)c(=O)c1-c1c(-c2ccc(SCC)cc2)oc2ccc(C)cc12 [9-058]
Japanese bulrush [1]; [13]
  Herbicidal effect, B: Japanese bulrush: 5 (Herbicidal rate of 90% or more (almost completely withered))
oval-leafed pondweed; [13]
  Herbicidal effect, C: oval-leafed pondweed: 5 (Herbicidal rate of 90% or more (almost completely withered))
Japanese bulrush [2]; [13]
  herbicidal effect grade, B: Japanese bulrush: 3 (Herbicidal rate of 40% or more and less than 70%)
Rice flat sedge; [13]
  Herbicidal effect on E (rice flat sedge), foliage application: 5 (Herbicidal rate of 90% or more (almost completely withered))
Southern crabgrass [3]; [13]
  F: southern crabgrass, herbicidal effect grade: 5 (Herbicidal rate of 90% or more (almost completely withered))
Barnyard grass; [13]
  H: barnyard grass, herbicidal effect grade: 2 (Herbicidal rate of 20% or more and less than 40%)
Wild oat; [13]
  I: wild oat, herbicidal effect grade: 0 (Herbicidal rate of 5% or less (almost no effect))
Blackgrass [4]; [13]
  J: blackgrass, herbicidal effect grade: 0 (Herbicidal rate of 5% or less (almost no effect))
Italian ryegrass [5]; [13]
  K: Italian ryegrass, herbicidal effect grade: 5 (Herbicidal rate of 90% or more (almost completely withered))
lambsquarters; [13]
  O: lambsquarters, herbicidal effect grade: 5 (Herbicidal rate of 90% or more (almost completely withered))
Chickweed [6]; [13]
  P: chickweed, herbicidal effect grade: 3 (Herbicidal rate of 40% or more and less than 70%)
Persian speedwell [7]; [13]
  R: persian speedwell, herbicidal effect grade: 5 (Herbicidal rate of 90% or more (almost completely withered))
Southern crabgrass [8]; 320 g/ha
  F (southern crabgrass) herbicidal effect grade: 4 (Herbicidal rate of 70% or more and less than 90%)
Blackgrass [9]; 320 g/ha
  J (blackgrass) herbicidal effect grade: 3 (Herbicidal rate of 40% or more and less than 70%)
Italian ryegrass [10]; 320 g/ha
  K (Italian ryegrass) herbicidal effect grade: 5 (Herbicidal rate of 90% or more (almost completely withered))
Chickweed [11]; 320 g/ha
  P (chickweed) herbicidal effect grade: 5 (Herbicidal rate of 90% or more (almost completely withered))
Persian speedwell [12]; 320 g/ha
  R (persian speedwell) herbicidal effect grade: 5 (Herbicidal rate of 90% or more (almost completely withered))

## Cc1ccc2oc(-c3ccc(SC(C)C)cc3)c(-c3c(O)c(C)nn(C)c3=O)c2c1 [9-059]
Japanese bulrush [1]; [13]
  Herbicidal effect, B: Japanese bulrush: 3 (Herbicidal rate of 40% or more and less than 70%)
oval-leafed pondweed; [13]
  Herbicidal effect, C: oval-leafed pondweed: 3 (Herbicidal rate of 40% or more and less than 70%)
Japanese bulrush [2]; [13]
  herbicidal effect grade, B: Japanese bulrush: 3 (Herbicidal rate of 40% or more and less than 70%)
Rice flat sedge; [13]
  Herbicidal effect on E (rice flat sedge), foliage application: 5 (Herbicidal rate of 90% or more (almost completely withered))
Southern crabgrass [3]; [13]
  F: southern crabgrass, herbicidal effect grade: 0 (Herbicidal rate of 5% or less (almost no effect))
Barnyard grass; [13]
  H: barnyard grass, herbicidal effect grade: 1 (Herbicidal rate of 5% or more and less than 20%)
Wild oat; [13]
  I: wild oat, herbicidal effect grade: 0 (Herbicidal rate of 5% or less (almost no effect))
Blackgrass [4]; [13]
  J: blackgrass, herbicidal effect grade: 0 (Herbicidal rate of 5% or less (almost no effect))
Italian ryegrass [5]; [13]
  K: Italian ryegrass, herbicidal effect grade: 4 (Herbicidal rate of 70% or more and less than 90%)
lambsquarters; [13]
  O: lambsquarters, herbicidal effect grade: 5 (Herbicidal rate of 90% or more (almost completely withered))
Chickweed [6]; [13]
  P: chickweed, herbicidal effect grade: 5 (Herbicidal rate of 90% or more (almost completely withered))
Persian speedwell [7]; [13]
  R: persian speedwell, herbicidal effect grade: 5 (Herbicidal rate of 90% or more (almost completely withered))
Southern crabgrass [8]; 320 g/ha
  F (southern crabgrass) herbicidal effect grade: 2 (Herbicidal rate of 20% or more and less than 40%)
Blackgrass [9]; 320 g/ha
  J (blackgrass) herbicidal effect grade: 1 (Herbicidal rate of 5% or more and less than 20%)
Italian ryegrass [10]; 320 g/ha
  K (Italian ryegrass) herbicidal effect grade: 5 (Herbicidal rate of 90% or more (almost completely withered))
Chickweed [11]; 320 g/ha
  P (chickweed) herbicidal effect grade: 5 (Herbicidal rate of 90% or more (almost completely withered))
Persian speedwell [12]; 320 g/ha
  R (persian speedwell) herbicidal effect grade: 5 (Herbicidal rate of 90% or more (almost completely withered))

## CCCC(=O)Oc1c(C)nn(C)c(=O)c1-c1c(-c2ccc(SC(C)C)cc2)oc2ccc(C)cc12 [9-060]
Japanese bulrush [1]; [14]
  Herbicidal effect, B: Japanese bulrush: 4 (Herbicidal rate of 70% or more and less than 90%)
oval-leafed pondweed; [14]
  Herbicidal effect, C: oval-leafed pondweed: 5 (Herbicidal rate of 90% or more (almost completely withered))
Japanese bulrush [2]; [14]
  herbicidal effect grade, B: Japanese bulrush: 3 (Herbicidal rate of 40% or more and less than 70%)
Rice flat sedge; [14]
  Herbicidal effect on E (rice flat sedge), foliage application: 5 (Herbicidal rate of 90% or more (almost completely withered))
Southern crabgrass [3]; [14]
  F: southern crabgrass, herbicidal effect grade: 1 (Herbicidal rate of 5% or more and less than 20%)
Barnyard grass; [14]
  H: barnyard grass, herbicidal effect grade: 0 (Herbicidal rate of 5% or less (almost no effect))
Wild oat; [14]
  I: wild oat, herbicidal effect grade: 0 (Herbicidal rate of 5% or less (almost no effect))
Blackgrass [4]; [14]
  J: blackgrass, herbicidal effect grade: 0 (Herbicidal rate of 5% or less (almost no effect))
Italian ryegrass [5]; [14]
  K: Italian ryegrass, herbicidal effect grade: 4 (Herbicidal rate of 70% or more and less than 90%)
lambsquarters; [14]
  O: lambsquarters, herbicidal effect grade: 4 (Herbicidal rate of 70% or more and less than 90%)
Chickweed [6]; [14]
  P: chickweed, herbicidal effect grade: 1 (Herbicidal rate of 5% or more and less than 20%)
Persian speedwell [7]; [14]
  R: persian speedwell, herbicidal effect grade: 5 (Herbicidal rate of 90% or more (almost completely withered))
Southern crabgrass [8]; 402 g/ha
  F (southern crabgrass) herbicidal effect grade: 0 (Herbicidal rate of 5% or less (almost no effect))
Blackgrass [9]; 402 g/ha
  J (blackgrass) herbicidal effect grade: 1 (Herbicidal rate of 5% or more and less than 20%)
Italian ryegrass [10]; 402 g/ha
  K (Italian ryegrass) herbicidal effect grade: 5 (Herbicidal rate of 90% or more (almost completely withered))
Chickweed [11]; 402 g/ha
  P (chickweed) herbicidal effect grade: 5 (Herbicidal rate of 90% or more (almost completely withered))
Persian speedwell [12]; 402 g/ha
  R (persian speedwell) herbicidal effect grade: 5 (Herbicidal rate of 90% or more (almost completely withered))

## CCCC(=O)Oc1c(C)nn(C)c(=O)c1-c1c(-c2ccc(COC)cc2)oc2ccc(C)cc12 [9-062]
Japanese bulrush [1]; [13]
  Herbicidal effect, B: Japanese bulrush: 5 (Herbicidal rate of 90% or more (almost completely withered))
oval-leafed pondweed; [13]
  Herbicidal effect, C: oval-leafed pondweed: 5 (Herbicidal rate of 90% or more (almost completely withered))
Japanese bulrush [2]; [13]
  herbicidal effect grade, B: Japanese bulrush: 3 (Herbicidal rate of 40% or more and less than 70%)
Rice flat sedge; [13]
  Herbicidal effect on E (rice flat sedge), foliage application: 5 (Herbicidal rate of 90% or more (almost completely withered))
Southern crabgrass [3]; [13]
  F: southern crabgrass, herbicidal effect grade: 4 (Herbicidal rate of 70% or more and less than 90%)
Barnyard grass; [13]
  H: barnyard grass, herbicidal effect grade: 4 (Herbicidal rate of 70% or more and less than 90%)
Wild oat; [13]
  I: wild oat, herbicidal effect grade: 0 (Herbicidal rate of 5% or less (almost no effect))
Blackgrass [4]; [13]
  J: blackgrass, herbicidal effect grade: 4 (Herbicidal rate of 70% or more and less than 90%)
Italian ryegrass [5]; [13]
  K: Italian ryegrass, herbicidal effect grade: 5 (Herbicidal rate of 90% or more (almost completely withered))
lambsquarters; [13]
  O: lambsquarters, herbicidal effect grade: 4 (Herbicidal rate of 70% or more and less than 90%)
Chickweed [6]; [13]
  P: chickweed, herbicidal effect grade: 3 (Herbicidal rate of 40% or more and less than 70%)
Persian speedwell [7]; [13]
  R: persian speedwell, herbicidal effect grade: 5 (Herbicidal rate of 90% or more (almost completely withered))
Southern crabgrass [8]; 320 g/ha
  F (southern crabgrass) herbicidal effect grade: 5 (Herbicidal rate of 90% or more (almost completely withered))
Blackgrass [9]; 320 g/ha
  J (blackgrass) herbicidal effect grade: 4 (Herbicidal rate of 70% or more and less than 90%)
Italian ryegrass [10]; 320 g/ha
  K (Italian ryegrass) herbicidal effect grade: 5 (Herbicidal rate of 90% or more (almost completely withered))
Chickweed [11]; 320 g/ha
  P (chickweed) herbicidal effect grade: 5 (Herbicidal rate of 90% or more (almost completely withered))
Persian speedwell [12]; 320 g/ha
  R (persian speedwell) herbicidal effect grade: 5 (Herbicidal rate of 90% or more (almost completely withered))

— patent publication US20230085307A1, “PYRIDAZINONE COMPOUND AND HERBICIDE” (NISSAN CHEMICAL CORPORATION, priority 2019, published 2023)
